Where “and” joins values, the source holds several entries; their conditions need not be identical. Identical values can stand only once. Like-named read-outs stand apart in the source and are kept apart here.
Assay: Pharmacokinetic study, IV and PO, plasma, brain and liver
Type: in vivo, mouse
Conditions: for tolerability / adverse effects: 50 mg/kg p.o. or 10 mg/kg i.v., up to 24 hours; for Plasma concentration, Mean: BQL = below LLOQ (10 ng/ml); for k el: read-out: Kel (Lambda_z) (converted); for MRT inf: read-out: MRT (MRTinf) (converted); for MRT last: read-out: MRT (MRTlast) (converted); for AUC(0-inf): read-out: AUC0→∞ (AUCINF_obs) (converted)
Experimental: The purpose of this study was to determine the pharmacokinetic characteristics of compound NG-537 in C57BL/6J mice following intravenous (IV) and peroral (PO) administration. Levels of NG-537 were determined in blood plasma , brain and liver over time after a single dose .
3.1 Reagents and consumables
DMSO Chromasolv Plus, HPLC grade, ≥99.7% (Sigma-Aldrich, USA; Cat #34869) Acetonitrile Chromasolv, gradient grade, for HPLC, ≥99.9% (Sigma-Aldrich, USA; Cat #34851) Methanol Chromasolv Plus, for HPLC, ≥99.9% (Sigma -Aldrich, USA; Cat 34860) Formic acid for mass spectrometry, ~98% (Fluka, USA; Cat #94318)
Physiological saline (“Yuria -Pharm”, Ukraine, S/# AA13249/1 -1)
Amyl alcohol (UOS, Ukraine) […]
Compound Thiamethoxam was used as internal standard (IS).
Compound NG-537 was supplied as dry powder. The batches of working formulations were prepared 20 min prior to the in vivo study. The vehicle was saline. To prepare the formulation, saline was added to the test compound. The mixture was vortexed for 1 min.
Gradient HPLC system (Shimadzu, Japan)
MS/MS detector API 3000 PE with TurboIonSpray Electrospray module (PE Sciex, Canada) VWR Membrane Nitrogen Generators N2-04-L1466. nitrogen purity 99%+ (VWR, USA) Water purification system Millipore Milli-Q Gradient A10 (Millipore, France) Fixed Speed Vortex Mixer “IKA Lab Dancer” (IKA®-Werke GmbH & Co. KG, Germany; IP-40) Centrifuge 4-15C (Qiagen) (Sigma, Germany)
Ultrasonic bath (Daihan, Korea; WUC-A03H)
(1 picture or pasted object on this page, not shown here)
Study design, animal selection, handling and treatment were all in accordance with the Enamine PK study protocols and the Institutional Animal Care and Use Guidelines. Animal treatment and plasma samples preparation were conducted by the Animal Laboratory personnel at Enamine/Bienta. Male C57BL/6J mice (9-11 weeks old, body weight from 26.1 g to 39.8 g and average body weight across all groups 31.9 g SD = 3.3 g) were used in this study. The animals were randomly assigned to the treatment groups before the pharmacokinetic study; all animals were fasted for 4 h before dosing. Seven time points (5, 15, 30, 60, 240, 480, and 1440 min) were set for this pharmacokinet ic study. Each of the time point treatment group included 4 animals. There was also control group of one animal . Dosing was done according to the treatment schedule outlined in Table 1. Mice were injected IP with 2,2,2-tribromoethanol at the dose of 250 mg/kg prior to drawing the blood. Blood collection was performed from the left ventricle of the heart in tubes containing 10 μl of heparin solution (400 ui/ml). The brain and liver were perfused before sampling. The animal died due to exsanguination during perfusion under anesthesia. All samples were immediately processed, flash-frozen and stored at -70°C until subsequent analysis.
Number of Delivery Target Dose Target Dose Target Dose
Mice Compound ID Formulation Route Level Concentration Volume […]
Plasma samples (40 μl) were mixed with 200 μl of IS solution. After mixing by pipetting and centrifuging for 4 min at 6,000 rpm, 2 μl of each supernatant was injected into LC-MS/MS system.
Solution of compound Thiamethoxam (400 ng/ml in water-methanol mixture 1:9, v/v) was used as internal standard (IS) for quantification of NG-537 in plasma samples.
Analyses of samples were conducted by the Bioanalytical Laboratory personnel at Enamine/Bienta.
Concentrations of NG-537 were determined using high performance liquid chromatography/tandem mass spectrometry (HPLC-MS/MS). Shimadzu HPLC system consisted 2 isocratic pumps LC-10ADvp, an autosampler SIL-20AC, a sub-controller FCV-14AH and a degasser DGU-14A. Mass spectrometric analysis was performed using API 3000 (triple-quadrupole) instrument from AB Sciex (Canada) with an electro -spray (ESI) interface. The data acquisition and system control was performed using Analyst 1.5.2 software (AB […]
3.6 HPLC-MS/MS Conditions
Chromatographic Conditions: […]

[1] = IV 10 mg/kg, 15 min, listed as NG-537, 10 mg/kg
[2] = PO 50 mg/kg, 15 min, listed as NG-537, 50 mg/kg
[3] = male, C57BL/6J, mouse, brain, PO 50 mg/kg
[4] = male, C57BL/6J, mouse, liver, PO 50 mg/kg
[5] = male, C57BL/6J, mouse, plasma, IV 10 mg/kg
[6] = male, C57BL/6J, mouse, plasma, PO 50 mg/kg

Cc1ccc(-c2cn3cccc(C)c3n2)cc1S(=O)(=O)N1CCNCC1 [YB-537]
tolerability / adverse effects: nontoxic and well tolerated
tolerability / adverse effects (listed as NG-537): No obvious adverse effects were observed
bioavailability (C57BL/6J, mouse, in vivo, PO 50 mg/kg vs IV 10 mg/kg, male mice): 82%
Liver concentration, Mouse A-D [1]: 17352 ng/g and 12944 ng/g and 10288 ng/g
Plasma concentration, Mouse A-D [1]: 1001 ng/mL and 1370 ng/mL and 836 ng/mL
Plasma concentration, Mean (IV 10 mg/kg, 240 min): BQL
Plasma concentration, Mouse A-D (IV 10 mg/kg, 240 min, all four BQL): BQL
Plasma concentration, Mean (IV 10 mg/kg, 480 min): BQL
Plasma concentration, Mouse A-D (IV 10 mg/kg, 480 min, all four BQL): BQL
Plasma concentration, Mean (IV 10 mg/kg, 1440 min): BQL
Plasma concentration, Mouse A-D (IV 10 mg/kg, 1440 min, all four BQL): BQL
Brain concentration, Mouse A-D [2]: 227 ng/g and 139 ng/g and 162 ng/g
Plasma concentration, Mouse A-D [2]: 1721 ng/mL and 2715 ng/mL and 1977 ng/mL
Plasma concentration, Mouse A-D (PO 50 mg/kg, 30 min, listed as NG-537, 50 mg/kg): 1258 ng/mL and 2296 ng/mL and 1618 ng/mL
Brain concentration, Mouse A-D (PO 50 mg/kg, 60 min, listed as NG-537, 50 mg/kg): 158 ng/g and 264 ng/g and 241 ng/g
Plasma concentration, Mean (PO 50 mg/kg, 480 min): BQL
Plasma concentration, Mean (PO 50 mg/kg, 1440 min): BQL
Plasma concentration, Mouse A-D (PO 50 mg/kg, 1440 min, all four BQL): BQL
AUC0→t=240min (AUClast) (brain, PO 50 mg/kg): 30500 ng·min/g
AUC0→∞ (AUCINF_obs) (brain, PO 50 mg/kg): 33100 ng·min/g
time of peak brain concentration after oral administration (brain, PO 50 mg/kg): approximately one
time of peak brain concentration following p.o. administration (brain, PO 50 mg/kg): 1 h
peak brain concentration, molar equivalent (brain, oral administration, equivalent of 203 ng/g): approximately 500 nM
AUC0→t=240min (AUClast) (liver, PO 50 mg/kg): 5530000 ng·min/g
AUC0→∞ (AUCINF_obs) (liver, PO 50 mg/kg): 5850000 ng·min/g
concentration at 15 min (male, C57BL/6J, mouse, brain, iv, 10 mg/kg, IV 10 mg/kg, 15 min, read-out: Brain concentration, Mean): 1070 ng/g
concentration at 15 min (male, C57BL/6J, mouse, brain, po, 50 mg/kg, PO 50 mg/kg, 15 min, read-out: Brain concentration, Mean): 172 ng/g
concentration at 15 min (male, C57BL/6J, mouse, brain, po, 50 mg/kg, PO 50 mg/kg, 15 min, read-out: Brain concentration, Mouse A-D): 161 ng/g
concentration at 60 min (male, C57BL/6J, mouse, brain, po, 50 mg/kg, PO 50 mg/kg, 60 min, read-out: Brain concentration, Mean): 203 ng/g
concentration at 60 min (male, C57BL/6J, mouse, brain, po, 50 mg/kg, PO 50 mg/kg, 60 min, read-out: Brain concentration, Mouse A-D): 148 ng/g
concentration at 240 min (male, C57BL/6J, mouse, brain, po, 50 mg/kg, PO 50 mg/kg, 240 min, BQL = below LLOQ, read-out: Brain concentration, Mouse A-D): 37 ng/g
concentration at 240 min (male, C57BL/6J, mouse, brain, po, 50 mg/kg, PO 50 mg/kg, 240 min, read-out: Brain concentration, Mean): 28 ng/g
half-life (male, C57BL/6J, mouse, in vivo, po, 50 mg/kg, brain, PO 50 mg/kg, read-out: T1/2 (HL_Lambda_z)): 63.5 min
half-life (male, C57BL/6J, mouse, in vivo, po, 50 mg/kg, mouse brain, acute oral dosing, read-out: clearance half life (converted)): ~60 min
concentration at 15 min (male, C57BL/6J, mouse, liver, iv, 10 mg/kg, IV 10 mg/kg, 15 min, read-out: Liver concentration, Mean): 13100 ng/g
concentration at 15 min (male, C57BL/6J, mouse, liver, iv, 10 mg/kg, IV 10 mg/kg, 15 min, read-out: Liver concentration, Mouse A-D): 12000 ng/g
concentration at 15 min (male, C57BL/6J, mouse, liver, po, 50 mg/kg, PO 50 mg/kg, 15 min, read-out: Liver concentration, Mean): 67700 ng/g
concentration at 60 min (male, C57BL/6J, mouse, liver, po, 50 mg/kg, PO 50 mg/kg, 60 min, read-out: Liver concentration, Mean): 28000 ng/g
concentration at 240 min (male, C57BL/6J, mouse, liver, po, 50 mg/kg, PO 50 mg/kg, 240 min, read-out: Liver concentration, Mean): 3900 ng/g
concentration at 5 min (male, C57BL/6J, mouse, plasma, iv, 10 mg/kg, IV 10 mg/kg): 2010 ng/mL
concentration at 15 min (male, C57BL/6J, mouse, plasma, iv, 10 mg/kg, IV 10 mg/kg, 15 min, read-out: Plasma concentration, Mean): 1020 ng/mL
concentration at 15 min (male, C57BL/6J, mouse, plasma, iv, 10 mg/kg, IV 10 mg/kg, 15 min, read-out: Plasma concentration, Mouse A-D): 863 ng/mL
concentration at 30 min (male, C57BL/6J, mouse, plasma, iv, 10 mg/kg, IV 10 mg/kg, 30 min, read-out: Plasma concentration, Mean): 432 ng/mL
concentration at 60 min (male, C57BL/6J, mouse, plasma, iv, 10 mg/kg, IV 10 mg/kg, 60 min, read-out: Plasma concentration, Mean): 191 ng/mL
concentration at 5 min (male, C57BL/6J, mouse, plasma, po, 50 mg/kg, PO 50 mg/kg): 451 ng/mL
concentration at 15 min (male, C57BL/6J, mouse, plasma, po, 50 mg/kg, PO 50 mg/kg, 15 min, read-out: Plasma concentration, Mean): 2030 ng/mL
concentration at 15 min (male, C57BL/6J, mouse, plasma, po, 50 mg/kg, PO 50 mg/kg, 15 min, read-out: Plasma concentration, Mouse A-D): 1720 ng/mL
concentration at 30 min (male, C57BL/6J, mouse, plasma, po, 50 mg/kg, PO 50 mg/kg, 30 min, read-out: Plasma concentration, Mean): 1720 ng/mL
concentration at 30 min (male, C57BL/6J, mouse, plasma, po, 50 mg/kg, PO 50 mg/kg, 30 min, read-out: Plasma concentration, Mouse A-D): 1730 ng/mL
concentration at 60 min (male, C57BL/6J, mouse, plasma, po, 50 mg/kg, PO 50 mg/kg, 60 min, read-out: Plasma concentration, Mean): 1130 ng/mL
concentration at 240 min (male, C57BL/6J, mouse, plasma, po, 50 mg/kg, PO 50 mg/kg, 240 min, read-out: Plasma concentration, Mean): 151 ng/mL
concentration at 480 min (male, C57BL/6J, mouse, plasma, po, 50 mg/kg, PO 50 mg/kg, 480 min, three BQL, 15 marked as Grubbs outlier, read-out: Plasma concentration, Mouse A-D): 15 ng/mL
Tmax [3]: 60 min
Cmax (male, C57BL/6J, mouse, brain, PO 50 mg/kg, read-out: Cmax (peak concentration)): 203 ng/g
k el [3]: 0.000182 s⁻¹
MRT inf [3]: 1.47 h
MRT last [3]: 67.5 min
Tmax [4]: 15 min
Cmax (male, C57BL/6J, mouse, liver, PO 50 mg/kg, read-out: Cmax): 67700 ng/g
k el [4]: 0.000203 s⁻¹
MRT inf [4]: 1.16 h
MRT last [4]: 54.9 min
half-life (male, C57BL/6J, mouse, liver, PO 50 mg/kg, read-out: T1/2 (HL_Lambda_z)): 56.8 min
C0 [5]: 2820 ng/mL
AUC(0-t) (male, C57BL/6J, mouse, plasma, IV 10 mg/kg, read-out: AUC0→t=60min (AUClast) (converted)): 790 ng·h/mL
AUC(0-inf) [5]: 867 ng·h/mL
clearance (male, C57BL/6J, mouse, plasma, IV 10 mg/kg, read-out: CL (Cl_obs)): 190 mL/min/kg
k el [5]: 0.000695 s⁻¹
MRT inf [5]: 0.357 h
MRT last [5]: 15.4 min
half-life (male, C57BL/6J, mouse, plasma, IV 10 mg/kg, read-out: T1/2 (HL_Lambda_z)): 16.6 min
Vd (male, C57BL/6J, mouse, plasma, IV 10 mg/kg, read-out: Vd (Vz_obs)): 5 L/kg
Tmax [6]: 15 min
AUC(0-t) (male, C57BL/6J, mouse, plasma, PO 50 mg/kg, read-out: AUC0→t=240min (AUClast) (converted)): 3330 ng·h/mL
AUC(0-inf) [6]: 3550 ng·h/mL
Cmax (male, C57BL/6J, mouse, plasma, PO 50 mg/kg, read-out: Cmax): 2030 ng/mL
k el [6]: 0.000192 s⁻¹
MRT inf [6]: 1.27 h
MRT last [6]: 59.8 min
Cmax (plasma, IV 10 mg/kg (summary table)): 2010 ng/ml(g)

Reference: article PMC10541198, “Specific quinone reductase 2 inhibitors reduce metabolic burden and reverse Alzheimer’s disease phenotype in mice” (The Journal of Clinical Investigation, 2023)
